Consider 1 sequence from article PMC7144530 (The Journal of Experimental Medicine, 2020).

In this assay the test system is CD8 T cells (CD4-depleted splenocytes). Briefly: IFN-gamma ELISpot of CD8 T cells from mice immunized with mutant SLP + adjuvant. The assay is classed as in vivo, mouse. Particulars: long peptide ELISpot, immunized vs control; positivity needs effect size ≥2.

For the sequence “IYEFDYHLYGQNITMIMTSVSGHL [Mutation C-117]”, the “fold-change of IFN-gamma spot counts after vaccination” value is 1.94.
